The subject of assay [1] is MRSA. Description: Biofilm assay (Calgary Biofilm Device), MBEC. Format: cell-based, methicillin-resistant S. aureus. The note with it: for MBEC: MRSA 24 h biofilm, 24 h challenge; for percent weight to volume of ionic liquid that corresponds to the MBEC value: MRSA biofilm. As for the experimental part: Biofilms of each test organism were grown in the Calgary Biofilm Device (commercially available as the MBEC Assay™ for Physiology & Genetics, Innovotech Inc., Edmonton, Alberta, Canada). The device, a micro-titre plated based assay, consists of two parts; a microtitre plate containing the inoculated test medium and a polystyrene lid with 96 identical pegs on which the microbial biofilm forms under gyrorotary incubation. The biofilm assay was conducted according to the MBEC™ assay protocol as supplied by the manufacturer, with slight modifications. Inocula of each test organism were prepared in MHB as described above and adjusted to provide a final inoculum density of ˜10^7 CFU ml^−1 (as confirmed by viable count). 150 μl of the inoculated media was transferred to each well of the 96-well microtitre plate and the assay plate lid, bearing 96 pegs was placed into the microtitre plate. The MBEC assay plates were placed in a gyrorotary incubator (37° C., 95% relative humidity) for 24 h to permit growth and comparison of 24 h biofilms of each test strain. Positive and negative growth controls were included in each plate (6 replicates). Initial and 24 h planktonic viable counts were measured, as were 24 h biofilm counts, expressed as CFU peg^−1, according to manufacturers instructions. After 24 h, the peg lid of the MBEC assay plate was gently rinsed three times. After rinsing, the peg lid of the MBEC assay was transferred to a ‘challenge’ plate. Serial dilutions of each imidazolium salt were prepared in 200 μl of MHB containing various concentrations of IL in each well. Positive growth control and sterility control were included in each assay plate. […] Biofilms were dislodged into recovery media by sonication for 5 minutes and the peg lid discarded. The recovery plate is incubated overnight and visually checked after 24 h for turbidity. In addition, optical density measurements for each plate were recorded at 550 nm. Clear wells were taken as evidence of biofilm eradication and the MBEC value was assigned as the lowest concentration at which no growth was observed after 24 h incubation. Plates were incubated for a further 24 h to confirm biofilm eradication concentrations.

In the next assay the test system is K. aerogenes NCTC 7427. As to the kind of experiment: Biofilm assay (Calgary Biofilm Device), MBEC. The class given is cell-based. To be noted: K. aerogenes NCTC 7427 24 h biofilm, 24 h challenge. In a few lines: (§1)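 peg lid biofilms, 24 h, 37° C, 95% RH, gyrorotary; inoculum ~10^7 CFU ml^−1 in MHB. Rinse ×3 → challenge with imidazolium salt dilutions in MHB → sonicate 5 min into recovery media. Readout: turbidity/OD550 at 24 h; MBEC = lowest conc. with no growth.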

The subject of assay [2] is S. epidermidis ATCC 35984. Description: Biofilm assay (Calgary Biofilm Device), MBEC. Format: cell-based. The note with it: for MBEC: S. epidermidis ATCC 35984 24 h biofilm, 24 h challenge; for percent weight to volume of ionic liquid that corresponds to the MBEC value: S. epidermidis ATCC 35984 biofilm. The procedure, abridged:
as §1

Another assay has as its system C. tropicalis NCTC 7393. As to the kind of experiment: Biofilm assay (Calgary Biofilm Device), MBEC. To be noted: C. tropicalis NCTC 7393 24 h biofilm, 24 h challenge. The class given is cell-based. In a few lines: as §1
The subject of assay [3] is E. coli PIII. Description: Biofilm assay (Calgary Biofilm Device), MBEC. The note with it: for MBEC: E. coli PIII 24 h biofilm, 24 h challenge; for percent weight to volume of ionic liquid that corresponds to the MBEC value: E. coli PIII biofilm. Format: cell-based. In a few lines:
as §1

A further assay relates to E-MRSA 15. As to the kind of experiment: Biofilm assay (Calgary Biofilm Device), MBEC. The class given is cell-based. To be noted: E-MRSA 15 24 h biofilm, 24 h challenge. The procedure, abridged: as §1
For a further assay, the system named is P. aeruginosa PA01. As to the kind of experiment: Biofilm assay (Calgary Biofilm Device), MBEC. Format: cell-based. To be noted: for MBEC: P. aeruginosa PA01 24 h biofilm, 24 h challenge; for percent weight to volume of ionic liquid that corresponds to the MBEC value: P. aeruginosa PA01 biofilm. The procedure, abridged: as §1
A further assay concerns B. cenocepacia J2315. As to the kind of experiment: Biofilm assay (Calgary Biofilm Device), MBEC. To be noted: B. cenocepacia J2315 24 h biofilm, 24 h challenge. Format: cell-based. In a few lines: as §1
In the next assay the test system is S. aureus ATCC 29213. As to the kind of experiment: Biofilm assay (Calgary Biofilm Device), MBEC. The class given is cell-based. The note with it: S. aureus ATCC 29213 24 h biofilm, 24 h challenge. The procedure, abridged: as §1
The test system of another assay is P. mirabilis NCTC 12442. Description: Biofilm assay (Calgary Biofilm Device), MBEC. Format: cell-based. The note with it: P. mirabilis NCTC 12442 24 h biofilm, 24 h challenge. The procedure, abridged:
as §1

The test system of assay [4] is MRSA. Description: Zone of inhibition on MRSA-seeded agar culture plates. The class given is cell-based, methicillin-resistant S. aureus. The note with it: 40 μL of ionic liquid applied to MRSA-seeded agar culture plates. From the text: As used herein, CyMIMCI, refers to 1-alkyl-3-methyl-imidazolium chloride ionic liquids, wherein the alkyl group is a straight chain alkyl group having y carbon atoms.

Assay [5] relates to E. coli PIII. Description: Broth microdilution MIC. The note with it: Escherichia coli. Format: cell-based. In a few lines: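 Imidazolium salts two-fold diluted in Mueller-Hinton broth over 0.0000625-1% w/v, inoculum 2×10^5 CFU/ml, aerobic 24 h at 37° C., per NCCLS. MBC: 20 μl from no-growth wells plated on MHA, 24 h, scored for 99.9% killing.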
On the technique in general: Broth dilution looks for growth in wells or tubes with falling amounts of substance.

With `CCCCCCCCCCn1cc[n+](C)c1.[Cl-]` [C10MIMCl, 1-decyl-3-methylimidazolium chloride], the MBEC in the assay with MRSA [1] turned out to be 4829 µM; in the assay with K. aerogenes NCTC 7427, 19318 µM; in [2], 4829 µM; in the assay on C. tropicalis NCTC 7393, 19318 µM; with E. coli PIII [3], 9659 µM; in the assay on E-MRSA 15, 1207 µM. The MBEC in the assay on P. aeruginosa PA01 was 2415 µM; with B. cenocepacia J2315, 19318 µM; in the assay with S. aureus ATCC 29213, 2415 µM; with P. mirabilis NCTC 12442, 9659 µM. The “percent weight to volume of ionic liquid that corresponds to the MBEC value” (shortened to “percent weight to volume”) in the assay with MRSA [1] is “(0.125) % w/v”; in assay [2], “(0.125) % w/v”; with E. coli PIII [3], “(0.25) % w/v”; in the assay with P. aeruginosa PA01 it was “(0.063) % w/v”. Further, in the assay on MRSA [4], the “Zone Of Inhibition Radius” value was 17 mm. The MIC (usually the lowest concentration that inhibits growth of the organism) with E. coli PIII [5] turned out to be 321 µM.
`CCCCCCCCCCCCn1cc[n+](C)c1.[Cl-]` [C12MIMCl, 1-dodecyl-3-methylimidazolium chloride]: the MBEC in the assay on MRSA [1] was found to be 545 µM; in the assay on K. aerogenes NCTC 7427, 2179 µM; in assay [2], 272 µM; in the assay on C. tropicalis NCTC 7393 it was 8714 µM; with E. coli PIII [3], 1089 µM; with E-MRSA 15 it was 272 µM. Also, the MBEC in the assay on P. aeruginosa PA01 was found to be 1089 µM; in the assay with B. cenocepacia J2315 it was 2179 µM; with S. aureus ATCC 29213 it was 272 µM; in the assay with P. mirabilis NCTC 12442 it was 4357 µM. The “percent weight to volume” value with MRSA [1] is reported as “(0.016) % w/v”; in assay [2] it was “(0.008) % w/v”; in the assay on E. coli PIII [3] it was “(0.031) % w/v”; in the assay with P. aeruginosa PA01, “(0.031) % w/v”. Besides, the “Zone Of Inhibition Radius” value in the assay with MRSA [4] came to 17 mm. The lowest concentration to inhibit growth in the assay on E. coli PIII [5] (MIC) was 73 µM.
As to `CCCCCCCCCCCCCCn1cc[n+](C)c1.[Cl-]` [C14MIMCl, 1-tetradecyl-3-methylimidazolium chloride], the MBEC with MRSA [1] amounted to 124 µM; with K. aerogenes NCTC 7427, 248 µM; in assay [2], 124 µM; in the assay with C. tropicalis NCTC 7393 it was 248 µM; with E. coli PIII [3] it was 124 µM; with E-MRSA 15, 248 µM. Also, the MBEC stood at 496 µM with P. aeruginosa PA01, 496 µM with B. cenocepacia J2315, 124 µM with S. aureus ATCC 29213 and 1984 µM in the assay with P. mirabilis NCTC 12442. Also, the “percent weight to volume” value with MRSA [1] was “(0.004 % w/v”; in [2] it was “(0.004 % w/v”; with E. coli PIII [3] it was “(0.004 % w/v”; in the assay on P. aeruginosa PA01, “(0.016 % w/v”. In addition, in the assay on MRSA [4], the “Zone Of Inhibition Radius” value is on record as 10 mm. Moreover, the MIC against E. coli PIII [5] is 33 µM.

(Values after patent publication US20110144079A1, “ANTIMICROBIAL SYSTEM” (priority 2008, published 2011).)
